US20230002361A1, “2H-INDAZOLE DERIVATIVES AND THEIR USE IN THE TREATMENT OF DISEASE” (BIOGEN MA INC., priority 2019, published 2023)
Where a name gives a salt, the structure may show the parent alone. Read-outs that look alike come from different tables or passages of the source.

Tests used:
MDR1 (P-gp) = molecular target: T1, MDR1 (P-gp) (Homo sapiens, UniProt P08183); experiment: MDR1-MDCK assay (efflux ratio); format: in vitro ADME; details: human, MDCK-MDR1, 1 μM compound, 120 minutes incubation; read-out: MDR1-MDCK Efflux Ratio; (B-A/A-B)
T1 construct: host or cells: MDCK cells
Method in brief: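 Human MDR1-transfected MDCK monolayers, cultured 7 days on transwell inserts with TEER checked, were dosed with compound at 1 μM in HBSS-HEPES. Transport was measured in both A-B and B-A directions. Efflux ratio came from the directional permeabilities, with mass balance also calculated.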

IRAK4 = molecular target: T2, IRAK4 (Homo sapiens, UniProt Q9NWZ3); experiment: IRAK4 MSD Biochemical Assay (1 mM ATP, 2 h); details: room temperature
T2 construct: with 0.1 nM IRAK4, 1.6 μM of biotinylated peptide substrate and 10 μM ATP
T2 sequence (Q9NWZ3 1-460): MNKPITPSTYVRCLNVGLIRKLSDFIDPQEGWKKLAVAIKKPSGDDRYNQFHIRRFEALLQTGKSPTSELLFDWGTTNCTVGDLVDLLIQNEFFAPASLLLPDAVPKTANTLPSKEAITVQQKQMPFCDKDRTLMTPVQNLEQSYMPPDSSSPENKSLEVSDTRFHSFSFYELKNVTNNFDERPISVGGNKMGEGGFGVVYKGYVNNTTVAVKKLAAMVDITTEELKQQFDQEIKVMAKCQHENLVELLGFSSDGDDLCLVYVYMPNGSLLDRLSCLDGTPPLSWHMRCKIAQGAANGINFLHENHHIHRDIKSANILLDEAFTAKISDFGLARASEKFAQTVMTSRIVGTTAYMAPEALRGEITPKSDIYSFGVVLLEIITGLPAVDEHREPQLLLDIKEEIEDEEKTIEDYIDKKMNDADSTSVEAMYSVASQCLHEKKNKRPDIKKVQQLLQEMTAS
Method in brief: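 Run with 1 mM ATP and […] for 2 h, then quenched with EDTA, pH 8. The phosphorylated biotinylated peptide was captured on streptavidin plates and detected with anti-phospho-threonine antibody plus Sulfo-Tag secondary by MSD electrochemiluminescence.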

[1] = read-out: IRAK4 MSD Biochemical Assay (1 mM ATP, 2 h) IC50

T1 sequence (P08183 whole entry): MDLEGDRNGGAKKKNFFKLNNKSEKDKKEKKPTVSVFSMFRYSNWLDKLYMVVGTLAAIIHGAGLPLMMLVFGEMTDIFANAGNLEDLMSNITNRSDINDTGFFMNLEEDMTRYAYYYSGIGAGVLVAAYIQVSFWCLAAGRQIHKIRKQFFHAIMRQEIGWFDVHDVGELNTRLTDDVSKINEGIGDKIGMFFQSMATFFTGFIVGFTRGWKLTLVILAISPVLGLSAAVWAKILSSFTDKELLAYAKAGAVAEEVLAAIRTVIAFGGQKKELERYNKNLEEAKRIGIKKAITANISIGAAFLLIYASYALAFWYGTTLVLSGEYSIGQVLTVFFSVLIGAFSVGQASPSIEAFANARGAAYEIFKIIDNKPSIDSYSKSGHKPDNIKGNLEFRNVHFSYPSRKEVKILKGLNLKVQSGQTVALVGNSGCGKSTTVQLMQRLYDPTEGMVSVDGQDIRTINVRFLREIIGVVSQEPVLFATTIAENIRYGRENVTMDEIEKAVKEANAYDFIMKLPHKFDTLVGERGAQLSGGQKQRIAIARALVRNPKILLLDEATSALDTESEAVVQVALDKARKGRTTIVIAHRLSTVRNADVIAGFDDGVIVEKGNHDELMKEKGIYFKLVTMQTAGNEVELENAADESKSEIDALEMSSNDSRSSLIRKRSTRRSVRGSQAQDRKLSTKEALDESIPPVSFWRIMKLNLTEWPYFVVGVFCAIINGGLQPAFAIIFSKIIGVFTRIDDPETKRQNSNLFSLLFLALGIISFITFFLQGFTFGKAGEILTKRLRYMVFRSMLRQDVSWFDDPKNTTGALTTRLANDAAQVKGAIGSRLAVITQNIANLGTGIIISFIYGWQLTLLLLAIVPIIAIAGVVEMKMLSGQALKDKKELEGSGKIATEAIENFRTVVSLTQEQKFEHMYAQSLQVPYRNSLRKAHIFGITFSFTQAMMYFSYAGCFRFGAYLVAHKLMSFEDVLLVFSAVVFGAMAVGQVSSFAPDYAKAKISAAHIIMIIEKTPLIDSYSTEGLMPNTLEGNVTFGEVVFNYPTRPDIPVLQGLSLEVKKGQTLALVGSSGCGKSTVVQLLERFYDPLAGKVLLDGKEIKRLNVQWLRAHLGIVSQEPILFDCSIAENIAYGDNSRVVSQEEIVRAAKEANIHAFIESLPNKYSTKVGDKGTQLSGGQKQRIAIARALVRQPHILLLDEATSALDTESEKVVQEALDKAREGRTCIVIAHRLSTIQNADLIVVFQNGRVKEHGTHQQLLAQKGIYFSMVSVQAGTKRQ

COc1ncccc1NC(=O)c1cc2cn(CCC(C)(C)O)nc2nc1OC(C)C [Example 40, 2-(3-Hydroxy-3-methylbutyl)-6-isopropoxy-N-(2-methoxypyridin-3-yl)-2H-pyrazolo[3,4-b]pyridine-5-carboxamide]
efflux ratio at 120 min, 1 μM (MDR1 (P-gp)): 5.7 | IC50 (IRAK4; [1]): 0.7 nM

CC(C)Oc1cc2nn(C)cc2cc1C(=O)Nc1cccc(C(F)F)n1 [Example 41, N-(6-(difluoromethyl)pyridin-2-yl)-6-isopropoxy-2-methyl-2H-indazole-5-carboxamide]
efflux ratio at 120 min, 1 μM (MDR1 (P-gp)): 0.3 | IC50 (IRAK4; [1]): 3.2 nM

Cl.O=C(Nc1cccc(C(F)F)n1)c1cc2cn(C3CCOCC3)nc2cc1O[C@H]1C[C@H](C(F)F)C1 [Example 48, 6-((1R,3R)-3-(difluoromethyl)cyclobutoxy)-N-(6-(difluoromethyl)pyridin-2-yl)-2-(tetrahydro-2H-pyran-4-yl)-2H-indazole-5-carboxamide Hydrochloride]
efflux ratio at 120 min, 1 μM (MDR1 (P-gp)): 1.3 | IC50 (IRAK4; [1]): 0.5 nM

Cl.O=C(Nc1cccc(C(F)F)n1)c1cc2cn(C3CCOCC3)nc2cc1OCC1CC(F)(F)C1 [Example 49, 6-((3,3-Difluorocyclobutyl)methoxy)-N-(6-(difluoromethyl)pyridin-2-yl)-2-(tetrahydro-2H-pyran-4-yl)-2H-indazole-5-carboxamide Hydrochloride]
efflux ratio at 120 min, 1 μM (MDR1 (P-gp)): 1.4 | IC50 (IRAK4; [1]): 2 nM

CO[C@H]1C[C@H](Oc2cc3nn(C4CCOCC4)cc3cc2C(=O)Nc2cccc(C(F)F)n2)C1.Cl [Example 50, N-(6-(difluoromethyl)pyridin-2-yl)-6-((1R,3R)-3-methoxycyclobutoxy)-2-(tetrahydro-2H-pyran-4-yl)-2H-indazole-5-carboxamide Hydrochloride]
efflux ratio at 120 min, 1 μM (MDR1 (P-gp)): 1.4 | IC50 (IRAK4; [1]): 0.2 nM

CC(C)Oc1cc2nn(C3CCOCC3)cc2cc1C(=O)Nc1cccc2ccnn12 [Example 51, 6-Isopropoxy-N-(pyrazolo[1,5-a]pyridin-7-yl)-2-(tetrahydro-2H-pyran-4-yl)-2H-indazole-5-carboxamide]
efflux ratio at 120 min, 1 μM (MDR1 (P-gp)): 0.9 | IC50 (IRAK4; [1]): 1.3 nM

CC(C)Oc1nc2nn(CC3CCOC3)cc2cc1C(=O)Nc1cnn2cccnc12 (stereo not shown) [Example 54, 6-Isopropoxy-N-(pyrazolo[1,5-a]pyrimidin-3-yl)-2-((tetrahydrofuran-3-yl)methyl)-2H-pyrazolo[3,4-b]pyridine-5-carboxamide]
efflux ratio at 120 min, 1 μM (MDR1 (P-gp)): 3.6 | IC50 (IRAK4; IRAK4 MSD Biochemical Assay (1 mM ATP, 2 h) IC50 (nM)): 1.3 nM

Cc1cnc2c(NC(=O)c3cc4cn(C56COC(C)(C5)C6)nc4cc3OC3CCC3)cnn2c1 [Example 56, 6-Cyclobutoxy-2-(1-methyl-2-oxabicyclo[2.1.1]hexan-4-yl)-N-(6-methylpyrazolo[1,5-a]pyrimidin-3-yl)-2H-indazole-5-carboxamide Trifluoroacetate]
efflux ratio at 120 min, 1 μM (MDR1 (P-gp)): 2 | IC50 (IRAK4; [1]): 0.5 nM

CC(C)Oc1cc2nn(C34CCC(C)(C3)OC4)cc2cc1C(=O)Nc1cccn(C)c1=O (stereo not shown) [Example 57, 6-Isopropoxy-N-(1-methyl-2-oxo-1,2-dihydropyridin-3-yl)-2-(1-methyl-2-oxabicyclo[2.2.1]heptan-4-yl)-2H-indazole-5-carboxamide]
efflux ratio at 120 min, 1 μM (MDR1 (P-gp)): 1.1 | IC50 (IRAK4; [1]): 0.8 nM

CC(C)Oc1cc2nn(C34CCC(C)(CC3)OC4)cc2cc1C(=O)Nc1cccn(C)c1=O [Example 58, 6-Isopropoxy-N-(1-methyl-2-oxo-1,2-dihydropyridin-3-yl)-2-(1-methyl-2-oxabicyclo[2.2.2]octan-4-yl)-2H-indazole-5-carboxamide Trifluoroacetate]
efflux ratio at 120 min, 1 μM (MDR1 (P-gp)): 0.9 | IC50 (IRAK4; [1]): 0.4 nM

COCCC(C)n1cc2cc(C(=O)Nc3cccc(C(F)F)n3)c(OC(C)C)cc2n1.Cl (stereo not shown) [Example 59, N-(6-(difluoromethyl)pyridin-2-yl)-6-isopropoxy-2-(4-methoxybutan-2-yl)-2H-indazole-5-carboxamide hydrochloride]
efflux ratio at 120 min, 1 μM (MDR1 (P-gp)): 0.4 | IC50 (IRAK4; [1]): 1 nM

COCCCn1cc2cc(C(=O)Nc3cccc(C(F)(F)F)n3)c(OC(C)C)nc2n1.Cl [Example 60, 6-Isopropxy-2-(3-methoxypropyl)-N-(6-(trifluoromethyl)pyridin-2-yl)-2H-pyrazolo[3,4-b]pyridine-5-carboxamide hydrochloride]
efflux ratio at 120 min, 1 μM (MDR1 (P-gp)): 1.5 | IC50 (IRAK4; [1]): 2.2 nM

COCCCn1cc2cc(C(=O)Nc3cccc(OC)n3)c(OC(C)C)nc2n1.Cl [Example 61, 6-Isopropoxy-2-(3-methoxypropyl)-N-(6-methoxypyridin-2-yl)-2H-pyrazolo[3,4-b]pyridine-5-carboxamide hydrochloride]
efflux ratio at 120 min, 1 μM (MDR1 (P-gp)): 1.1 | IC50 (IRAK4; [1]): 3.7 nM

COCCCn1cc2cc(C(=O)Nc3cccc(C(F)F)n3)c(OC(C)C)nc2n1.Cl [Example 62, N-(6-(difluoromethyl)pyridin-2-yl)-6-isopropoxy-2-(3-methoxsypropyl)-2H-pyrazolo[3,4-b]pyridine-5-carboxamide hydrochloride]
efflux ratio at 120 min, 1 μM (MDR1 (P-gp)): 1.7 | IC50 (IRAK4; [1]): 0.6 nM

CC(C)Oc1nc2nn(C3CCOCC3)cc2cc1C(=O)Nc1cccc(C(F)F)n1 [Example 63, N-(6-(difluoromethyl)pyridin-2-yl)-6-isopropoxy-2-(tetrahydro-2H-pyran-4-yl)-2H-pyrazolo[3,4-b]pyridine-5-carboxamide]
efflux ratio at 120 min, 1 μM (MDR1 (P-gp)): 1 | IC50 (IRAK4; [1]): 0.3 nM

COc1cccc(NC(=O)c2cc3cn(C4CCOCC4)nc3cc2OC(C)C)n1 [Example 66, 6-Isopropoxy-N-(6-methoxypyridin-2-yl)-2-(tetrahydro-2H-pyran-4-yl)-2H-indazole-5-carboxamide]
efflux ratio at 120 min, 1 μM (MDR1 (P-gp)): 0.9 | IC50 (IRAK4; [1]): 1.4 nM

CC(C)Oc1cc2nn(C3CCOCC3)cc2cc1C(=O)Nc1ccn(C)n1 [Example 67, 6-Isopropoxy-N-(1-methyl-1H-pyrazol-3-yl)-2-(tetrahydro-2H-pyran-4-yl)-2H-indazole-5-carboxamide]
efflux ratio at 120 min, 1 μM (MDR1 (P-gp)): 4.6 | IC50 (IRAK4; [1]): 9.5 nM

Cc1cccc(NC(=O)c2cc3cn(C4CCOCC4)nc3cc2OC(C)C)c1F [Example 68, N-(2-fluoro-3-methylphenyl)-6-isopropoxy-2-(tetrahydro-2H-pyran-4-yl)-2H-indazole-5-carboxamide]
efflux ratio at 120 min, 1 μM (MDR1 (P-gp)): 1.4 | IC50 (IRAK4; [1]): 2 nM

COc1ncccc1NC(=O)c1cc2cn(C3CCOCC3)nc2cc1OC(C)C [Example 69, 6-Isopropoxy-N-(2-methoxypyridin-3-yl)-2-(tetrahydro-2H-pyran-4-yl)-2H-indazole-5-carboxamide]
efflux ratio at 120 min, 1 μM (MDR1 (P-gp)): 1 | IC50 (IRAK4; [1]): 1 nM

CC(C)Oc1cc2nn(C3CCOCC3)cc2cc1C(=O)Nc1cccnc1OC(F)F.Cl [Example 70, N-(2-(difluoromethoxy)pyridin-3-yl)-6-isopropoxy-2-(tetrahydro-2H-pyran-4-yl)-2H-indazole-5-carboxamide hydrochloride]
efflux ratio at 120 min, 1 μM (MDR1 (P-gp)): 1.1 | IC50 (IRAK4; [1]): 8.7 nM

CC(C)Oc1cc2nn(C3CCOCC3)cc2cc1C(=O)Nc1cccn2nccc12.Cl [Example 71, 6-Isopropoxy-N-(pyrazolo[1,5-a]pyridin-4-yl)-2-(tetrahydro-2H-pyran-4-yl)-2H-indazole-5-carboxamide hydrochloride]
efflux ratio at 120 min, 1 μM (MDR1 (P-gp)): 1.6 | IC50 (IRAK4; [1]): 6.6 nM

CC(C)Oc1cc2nn(C3CCOCC3)cc2cc1C(=O)Nc1cnn2cccnc12 [Example 72, 6-Isopropoxy-N-(pyrazolo[1,5-a]pyrimidin-3-yl)-2-(tetrahydro-2H-pyran-4-yl)-2H-indazole-5-carboxamide]
efflux ratio at 120 min, 1 μM (MDR1 (P-gp)): 2.1 | IC50 (IRAK4; [1]): 0.8 nM

CC(C)Oc1cc2nn(C3CCOCC3)cc2cc1C(=O)Nc1cccc2c1OCC2.Cl [Example 73, N-(2,3-dihydrobenzofuran-7-yl)-6-isopropoxy-2-(tetrahydro-2H-pyran-4-yl)-2H-indazole-5-carboxamide hydrochloride]
efflux ratio at 120 min, 1 μM (MDR1 (P-gp)): 0.7 | IC50 (IRAK4; [1]): 1.8 nM

CO[C@H]1C[C@H](n2cc3cc(C(=O)Nc4cccc(C(F)F)n4)c(OC(C)C)cc3n2)C1 [Example 74, N-(6-(difluoromethyl)pyridin-2-yl)-6-isopropoxy-2-((1R,3R)-3-methoxycyclobutyl)-2H-indazole-5-carboxamide]
efflux ratio at 120 min, 1 μM (MDR1 (P-gp)): 0.5 | IC50 (IRAK4; [1]): 0.4 nM

O=C(Nc1cccc(C(F)F)n1)c1cc2cn(C3CCOCC3)nc2cc1OC1CCOC1 (stereo not shown) [Example 75, N-(6-(difluoromethyl)pyridin-2-yl)-2-(tetrahydro-2H-pyran-4-yl)-6-((tetrahydrofuran-3-yl)oxy)-2H-indazole-5-carboxamide]
efflux ratio at 120 min, 1 μM (MDR1 (P-gp)): 2.9 | IC50 (IRAK4; [1]): 1.1 nM

CC(C)Oc1nc2nn(CC3CCOC3)cc2cc1C(=O)Nc1ccccn1 (stereo not shown) [Example 77, 6-Isopropoxy-N-(pyridin-2-yl)-2-((tetrahydrofuran-3-yl)methyl)-2H-pyrazolo[3,4-b]pyridine-5-carboxamide]
efflux ratio at 120 min, 1 μM (MDR1 (P-gp)): 1.9 | IC50 (IRAK4; [1]): 13.6 nM
